Measured values from patent publication US9743675B2, “Antimicrobial composition” (UNIVERSITY OF SURREY, priority 2009, dated 2017).
Where “and” joins values, the source holds several entries; their conditions need not be identical. Equal values may be shown once. Read-outs that look alike come from different tables or passages of the source.

Assays:
Salmonella enterica [1] = system: Salmonella enterica
Salmonella enteritidis [2] = experiment: micro broth dilution, coniferaldehyde and vanillin with and without DHAA (Example 9); assay type: cell-based; settings: Vanilin/Coniferylaldehyde 0/5 mM; DHAA 20 mM if combined
Protocol: All stock solutions were stored at 5° C. In vitro bioassay: The MIC of the different treatments was determined using a micro broth dilution method. […] Control wells were prepared by adding 100 μL acetone. […] […] The plates were placed in a laminar flow chamber for 8 hours to evaporate the solvent. […] Where possible, colonies were counted to obtain more precise quantitative data.

Salmonella enterica [3] = assay type: cell-based
Protocol: 20 mmol solutions of ursolic acid, oleonic acid and betulin in alcohol were also prepared.

Salmonella enterica [4] = experiment: perlite assay, survival of Salmonella enterica: vanillin with dehydro-abietic acid (Example 1); assay type: cell-based
Protocol: A 20 mmol solution of dehydroabietic acid in alcohol and water was also prepared.

Salmonella enteritidis [5] = experiment: perlite bio-assay with pure DHAA and vanillin (Example 7); assay type: cell-based; settings: DHAA (10 μl of 20 mM) if +DA
Protocol: Also, one 20 mM stock solution of DHAA was made in acetone. Bioassay test: The test was carried out using 1.5 ml Eppendorf tubes containing 10 mg of fine perlite. Ten μl of each concentration of vanillin was dispensed into four Eppendorf tubes to obtain four replicates of each concentration. Two of these received 10 μl of DHAA. The tubes were left in laminar flow chamber for 3 h to allow evaporation of the acetone. […] To keep the perlite moist during incubation, 10 μl of sterile R.O water was dispensed into each tube. As controls, two tubes received DHAA only and two tubes received R.O water only. The tubes were incubated overnight, and bacterial survival was quantified by plating the content of each tube onto nutrient agar for the bacterial count.

S. enteritidis = experiment: inhibition zone experiment on TLC plate; assay type: cell-based; settings: FIG. 3
Protocol: Two test solutions were prepared, i.e.: (i) vanillin in combination with DHAA, and (ii) stilbene in combination with dehydro-abietic acid (DHAA). The activity of the solutions were then tested on several different micro-organisms, as follows.
A droplet of a test solution was placed on a TLC plate. The solvent was allowed to evaporate and a suspension of test micro-organisms (Gram-positive and Gram-negative bacteria) in broth was applied evenly onto the TLC plate. The plate was incubated overnight. To visualise microbial activity, the TLC plate was sprayed with tetrazolium salt solution. Microbial activity was indicated by a red-pink colour.

S. cerevisiae = experiment: inhibition zone experiment on TLC plate; assay type: cell-based; settings: FIG. 8, S. cerevisiae; on its own or in combination with DHAA
Protocol: Two test solutions were prepared, i.e.: (i) vanillin in combination with DHAA, and (ii) stilbene in combination with dehydro-abietic acid (DHAA). The activity of the solutions were then tested on several different micro-organisms, as follows. A droplet of a test solution was placed on a TLC plate. The solvent was allowed to evaporate and a suspension of test micro-organisms (Gram-positive and Gram-negative bacteria) in broth was applied evenly onto the TLC plate. The plate was incubated overnight. To visualise microbial activity, the TLC plate was sprayed with tetrazolium salt solution. Microbial activity was indicated by a red-pink colour. To show the efficacy of the solutions against filamentous fungi, the inoculated TLC plates were incubated until the fungus started to sporulate. To show efficacy against yeast, after incubation, the TLC plates were pressed against a nutrient agar plate. The plate was incubated until yeast colonies were clearly visible.

[6] = solubility in water, concluded from water extraction of heated pine shavings; assay type: physicochemical

O=C(O)CC(O)(CC(=O)O)C(=O)O [citric acid]
Average no. of cfu recovered per droplet (Salmonella enterica [1]; citric acid 20 mmol alone, vanillin 0): >100 cfu

COc1cc(/C=C/C=O)ccc1O [Coniferyl aldehyde, coniferaldehyde]
Colony counts (Salmonella enteritidis [2]): TMTC

C=C(C)[C@@H]1CC[C@]2(CO)CC[C@]3(C)[C@H](CC[C@@H]4[C@@]5(C)CC[C@H](O)C(C)(C)[C@@H]5CC[C@]43C)[C@@H]12 [betulin]
Average no. of cfu recovered per droplet (Salmonella enterica [3]; triterpenoid 20 mmol alone, vanillin 0): >100 cfu

COc1cc(C=O)ccc1O [Vanillin, 4-hydroxy-3-methoxybenzaldehyde]
Average no of cfu recovered per droplet (Salmonella enterica [4]; vanillin 0.001 mmol, DHAA 20 mmol if combined): >100 cfu | Average no of cfu recovered per droplet (Salmonella enterica [4]; vanillin 0.019 mmol, DHAA 20 mmol if combined): >100 cfu | Average no of cfu recovered per droplet (Salmonella enterica [4]; vanillin 0.039 mmol, DHAA 20 mmol if combined): >100 cfu | Average no of cfu recovered per droplet (Salmonella enterica [4]; vanillin 0.078 mmol, DHAA 20 mmol if combined): >100 cfu | Average no of cfu recovered per droplet (Salmonella enterica [4]; vanillin 0.156 mmol, DHAA 20 mmol if combined): >100 cfu | Average no of cfu recovered per droplet (Salmonella enterica [4]; vanillin 0.313 mmol, DHAA 20 mmol if combined): >100 cfu | Average no of cfu recovered per droplet (Salmonella enterica [4]; vanillin 0.625 mmol, DHAA 20 mmol if combined): >100 cfu | Average no of cfu recovered per droplet (Salmonella enterica [4]; vanillin 1.25 mmol, DHAA 20 mmol if combined): >100 cfu | Average no of cfu recovered per droplet (Salmonella enterica [4]; vanillin 2.5 mmol, DHAA 20 mmol if combined): >100 cfu | Average no of cfu recovered per droplet (Salmonella enterica [4]; vanillin 5 mmol, DHAA 20 mmol if combined): >100 cfu | Average no of cfu recovered per droplet (Salmonella enterica [4]; vanillin 10 mmol, DHAA 20 mmol if combined): >100 cfu | Average no of cfu recovered per droplet (Salmonella enterica [4]; vanillin 20 mmol, DHAA 20 mmol if combined): >100 cfu | inhibitory effect on Salmonella (Salmonella enterica [4]; vanillin on its own, 20 mmol or less): no inhibitory effect | Average no. of cfu recovered per droplet (Salmonella enterica [3]): >100 cfu | Salmonella enteritidis count (Salmonella enteritidis [5]; vanillin 0.313 mM): TMTC | Salmonella enteritidis count (Salmonella enteritidis [5]; vanillin 2.5 mM): TMTC | Salmonella enteritidis count (Salmonella enteritidis [5]; vanillin 5 mM): TMTC | Salmonella enteritidis count (Salmonella enteritidis [5]; vanillin 10 mM): 394 CFU/tube and 500 CFU/tube | inhibition of S. enteritidis on TLC plate (S. enteritidis): ineffective | concentration of vanillin at which it is effective (S. cerevisiae): 5 mM | Average no. of cfu recovered per droplet (Salmonella enterica [1]; vanillin 20 mmol, citric acid 20 mmol if combined): >100 cfu

C[C@H]1[C@H](C)CC[C@]2(C(=O)O)CC[C@]3(C)C(=CC[C@@H]4[C@@]5(C)CC[C@H](O)C(C)(C)[C@@H]5CC[C@]43C)[C@H]12 [ursolic acid]
Average no. of cfu recovered per droplet (Salmonella enterica [3]): >100 cfu

CC(C)c1ccc2c(c1)CC[C@H]1[C@](C)(C(=O)O)CCC[C@]21C [Dehydro-Abietic acid, dehydroabietic acid]
Average no of cfu recovered per droplet (Salmonella enterica [4]; DHAA 20 mmol alone, vanillin 0): >100 cfu | solubility in water [6]: poorly-soluble in water

CC1(C)CC[C@]2(C(=O)O)CC[C@]3(C)C(=CC[C@@H]4[C@@]5(C)CC[C@H](O)C(C)(C)[C@@H]5CC[C@]43C)[C@@H]2C1 [oleanic acid, oleanolic acid]
Average no. of cfu recovered per droplet (Salmonella enterica [3]): >100 cfu
